According to patent publication US8815841B2, “1,4-Oxazepines as BACE1 and/or BACE2 inhibitors” (Hoffmann-La Roche Inc., priority 2011, dated 2014):
Counter-ions that a name gives are not always drawn.

Key:
[1] = tested on: Aβ40 in Human HEK293 cells stably transfected with human APP wt gene (APP695); test: Cellular Aβ-lowering assay; type: cell-based; settings: HEK293 cells expressing human APP695, Aβ40 in culture supernatant by ELISA after 18-20 hrs; read-out: Cellular assay Abeta40 IC50
Experimental: Cellular Aβ-lowering Assay:
Human HEK293 cells which are stably transfected with a vector expressing a cDNA of the human APP wt gene (APP695) were used to assess the potency of the compounds in a cellular assay. The cells were seeded in 96-well microtiter plates in cell culture medium (Iscove, plus 10% (v/v) fetal bovine serum, glutamine, penicillin/streptomycin) to about 80% confluence and the compounds were added at a 10× concentration in 1/10 volume of medium without FCS containing 8% DMSO (final concentration of DMSO was kept at 0.8% v/v). After 18-20 hrs incubation at 37° C. and 5% CO2 in a humidified incubator the culture supernatant was harvested for the determination of Aβ40 concentrations. 96 well ELISA plates (e.g., Nunc MaxiSorb) were coated with monoclonal antibody which specifically recognize the C-terminal end of Aβ40 (Brockhaus et al., NeuroReport 9, 1481-1486; 1998). After blocking of non-specific binding sites with e.g. 1% BSA and washing, the culture supernatants were added in suitable dilutions together with a horseradish peroxidase-coupled Aβ detection antibody (e.g., antibody 4G8, Senetek, Maryland Heights, Mo.) and incubated for 5 to 7 hrs. Subsequently the wells of the microtiter plate were washed extensively with Tris-buffered saline containing 0.05% Tween 20 and the assay was developed with tetramethylbenzidine/H2O2 in citric acid buffer. After stopping the reaction with one volume 1 NH2SO4 the reaction was measured in an ELISA reader at 450 nm wavelength. The concentrations of Aβ in the culture supernatants were calculated from a standard curve obtained with known amounts of pure Aβ peptide.

[2] = biological target: T1, endogenous cellular BACE2 (human TMEM27 cleavage) in the Ins 1e rat cell line (Rattus norvegicus, UniProt Q6IE75); test: Assay for BACE inhibition by measuring cellular TMEM27 cleavage; type: cell-based; settings: INS-TMEM27 cells, shed TMEM27 in culture medium by ELISA
T1 construct: endogenous cellular BACE2 in the Ins 1e rat cell line; endogenous in cells; host or cells: INS-TMEM27 (INS1e-derived rat cell line with doxycycline-inducible full-length human TMEM27)
T1 sequence (Q6IE75 63-514): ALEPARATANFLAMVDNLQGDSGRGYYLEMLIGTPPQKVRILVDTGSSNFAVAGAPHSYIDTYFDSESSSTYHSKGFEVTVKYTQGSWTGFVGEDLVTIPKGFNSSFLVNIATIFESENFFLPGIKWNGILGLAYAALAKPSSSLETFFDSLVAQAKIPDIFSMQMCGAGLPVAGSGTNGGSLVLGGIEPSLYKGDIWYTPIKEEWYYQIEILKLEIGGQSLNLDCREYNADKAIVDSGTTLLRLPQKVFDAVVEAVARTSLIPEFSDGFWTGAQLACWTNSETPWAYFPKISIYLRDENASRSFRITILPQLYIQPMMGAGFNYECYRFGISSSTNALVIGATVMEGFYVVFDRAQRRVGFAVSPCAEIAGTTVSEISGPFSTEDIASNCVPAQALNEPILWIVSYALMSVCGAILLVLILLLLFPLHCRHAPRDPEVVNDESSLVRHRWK
Description: Assay for BACE Inhibition by Measuring Cellular TMEM27 Cleavage:
The assay uses the principle of inhibition of human TMEM27 cleavage by endogenous cellular BACE2 in the Ins 1e rat cell line and shedding from the cell surface into the culture medium, followed by detection in an ELISA assay. Inhibition of BACE2 prevents the cleavage and shedding in a dose-dependent manner.
The stable cell line “INS-TMEM27” represents an INSle-derived cell line with inducible expression (using the TetOn system) of full-length hTMEM27 in a doxycycline-dependent manner. The cells are cultured throughout the experiment in RPMI1640+Glutamax (Invitrogen) Penicillin/Streptomycin, 10% Fetal bovine serum, […], […], 100 micrograms/ml G418 and 100 microgram/ml hygromycin and are grown inadherent culture at 37° C. in a standard CO2 cell culture incubator.
INS-TMEM27 cells are seeded in 96-well plates. After 2 days in culture, BACE2 inhibitor is added in a range of concentrations as required by the assay and after a further two hours, doxycycline is added to a final concentration of 500 ng/ml. The cells are incubated for a further 46 hours and the supernatant harvested for detection of shed TMEM27.
An ELISA assay (using a pair of mouse anti-human-TMEM27 antibodies, raised against the extracellular domain of TMEM27) is used for detection of TMEM27 in the culture medium. An EC50 for BACE2 inhibition is calculated using the ELISA readout for each inhibitor concentration with standard curve-fitting software such as XLFit for the Excel spreadsheet program.

| Compound | IC50 [1] [nM] | IC50 [2] [nM] |
| --- | --- | --- |
| C[C@]1(c2cc(NC(=O)c3ncc(C(N)=O)cc3F)ccc2F)N=C(N)COCC1(F)F [Example 1, (R)—N2-(3-(3-Amino-6,6-difluoro-5-methyl-2,5,6,7-tetrahydro-1,4-oxazepin-5-yl)-4-fluorophenyl)-3-fluoropyridine-2,5-dicarboxamide formate] | 350 | 14600 |
| C[C@]1(c2cc(NC(=O)c3ccc(-c4nccs4)cn3)ccc2F)N=C(N)COCC1(F)F [Example 3, (R)—N-(3-(3-Amino-6,6-difluoro-5-methyl-2,5,6,7-tetrahydro-1,4-oxazepin-5-yl)-4-fluorophenyl)-5-(thiazol-2-yl)picolinamide formate] | 10 | 5730 |
| CC[C@]1(c2cc(NC(=O)c3ncoc3C3CC3)ccc2F)N=C(N)COCC1(F)F [Example 4, (R)—N-(3-(3-Amino-5-ethyl-6,6-difluoro-2,5,6,7-tetrahydro-1,4-oxazepin-5-yl)-4-fluorophenyl)-5-cyclopropyloxazole-4-carboxamide] | 2400 | 662 |
| CSc1cnc(C(=O)Nc2ccc(F)c([C@@]3(C)N=C(N)COCC3(F)F)c2)cn1 [Example 5, (R)—N-(3-(3-Amino-6,6-difluoro-5-methyl-2,5,6,7-tetrahydro-1,4-oxazepin-5-yl)-4-fluorophenyl)-5-(methylthio)pyrazine-2-carboxamide formate] | 10 | 103 |
| C[C@]1(c2cc(NC(=O)c3ccc(C#CC4CC4)cn3)ccc2F)N=C(N)COCC1(F)F [Example 6, (R)—N-(3-(3-Amino-6,6-difluoro-5-methyl-2,5,6,7-tetrahydro-1,4-oxazepin-5-yl)-4-fluorophenyl)-5-(cyclopropylethynyl)picolinamide formate] | 20 | 311 |
| C[C@]1(c2cc(NC(=O)c3ccc(C4CC4)cn3)ccc2F)N=C(N)COCC1(F)F [Example 7, (R)—N-(3-(3-Amino-6,6-difluoro-5-methyl-2,5,6,7-tetrahydro-1,4-oxazepin-5-yl)-4-fluorophenyl)-5-cyclopropylpicolinamide formate] | 25 | 123 |
| COCC#Cc1ccc(C(=O)Nc2ccc(F)c([C@@]3(C)N=C(N)COCC3(F)F)c2)nc1 [Example 8, (R)—N-(3-(3-Amino-6,6-difluoro-5-methyl-2,5,6,7-tetrahydro-1,4-oxazepin-5-yl)-4-fluorophenyl)-5-(3-methoxyprop-1-ynyl)picolinamide formate] | 70 | 837 |
| C[C@]1(c2cc(NCC3CC3)ccc2F)N=C(N)COC[C@@H]1F [Example 9, (5R,6R)-5-(5-(Cyclopropylmethylamino)-2-fluorophenyl)-6-fluoro-5-methyl-2,5,6,7-tetrahydro-1,4-oxazepin-3-amine] | 28 | 22.6 |
